This passage reports IC50 and A1/A2A results from patent US20110105492A1, “ARYL SUBSTITUTED ARYLINDENOPYRIMIDINES AND THEIR USE AS HIGHLY SELECTIVE ADENOSINE A2a RECEPTOR ANTAGONISTS” (priority 2009, published 2011).

For experiment [1], the target named is T1, human adenosine A2A receptor (Homo sapiens, UniProt P29274).
T1 construct: expressed in transfected cells; host or cells: CHO-K1 cells with a cAMP inducible beta-galactosidase reporter gene
Briefly: Adenosine A2A Receptor Functional Assay (A2AGAL2). The format is cell-based. The settings on record: for IC50: CHO-K1 cells overexpressing human A2A, cAMP inducible beta-galactosidase reporter, antagonist vs 15 nM NECA challenge; for A1/A2A: ratio of A1Gal2 to A2AGal2 value. Here is the method: Adenosine A2A Receptor Functional Assay (A2AGAL2)
To initiate the functional assay, cryopreserved CHO-K1 cells overexpressing the human adenosine A2A receptor and containing a cAMP inducible beta-galactosidase reporter gene were thawed, centrifuged, DMSO containing media removed, and then seeded with fresh culture media into clear 384-well tissue culture treated plates (BD #353961) at a concentration of 10K cells/well. Prior to assay, these plates were cultured for two days at 37° C., 5% CO2, 90% Rh. On the day of the functional assay, culture media was removed and replaced with 45 μL assay medium (Hams/F-12 Modified (Mediatech # 10-080CV) supplemented w/0.1% BSA). Test compounds were diluted and 11 point curves created at a 1000× concentration in 100% DMSO. Immediately after addition of assay media to the cell plates, 50 nL of the appropriate test compound antagonist or agonist control curves were added to cell plates using a Cartesian Hummingbird. Compound curves were allowed to incubate at room temperature on cell plates for approximately 15 minutes before addition of a 15 nM NECA (Sigma E2387) agonist challenge (5 μL volume). A control curve of NECA, a DMSO/Media control, and a single dose of Forskolin (Sigma F3917) were also included on each plate. After additions, cell plates were allowed to incubate at 37° C., 5% CO2, 90% Rh for 5.5-6 hours. After incubation, media were removed, and cell plates were washed 1×50 μL with DPBS w/o Ca & Mg (Mediatech 21-031-CV). Into dry wells, 20 μL of 1× Reporter Lysis Buffer (Promega E3971 (diluted in dH2O from 5× stock)) was added to each well and plates frozen at −20° C. overnight. For β-galactosidase enzyme colorimetric assay, plates were thawed out at room temperature and 20 μL 2× assay buffer (Promega) was added to each well. Color was allowed to develop at 37° C., 5% CO2, 90% Rh for 1-1.5 hours or until reasonable signal appeared. The colorimetric reaction was stopped with the addition of 60 μL/well 1M sodium carbonate. Plates were counted at 405 nm on a SpectraMax Microplate Reader (Molecular Devices). Data was analyzed in Microsoft Excel and IC/EC50 curves were fit using a standardized macro.

The target of experiment [2] is T2, human adenosine A1 receptor (Homo sapiens, UniProt P30542).
T2 construct: expressed in transfected cells; host or cells: CHO-K1 cells with a cAMP inducible beta-galactosidase reporter gene
T2 sequence (P30542 1-326): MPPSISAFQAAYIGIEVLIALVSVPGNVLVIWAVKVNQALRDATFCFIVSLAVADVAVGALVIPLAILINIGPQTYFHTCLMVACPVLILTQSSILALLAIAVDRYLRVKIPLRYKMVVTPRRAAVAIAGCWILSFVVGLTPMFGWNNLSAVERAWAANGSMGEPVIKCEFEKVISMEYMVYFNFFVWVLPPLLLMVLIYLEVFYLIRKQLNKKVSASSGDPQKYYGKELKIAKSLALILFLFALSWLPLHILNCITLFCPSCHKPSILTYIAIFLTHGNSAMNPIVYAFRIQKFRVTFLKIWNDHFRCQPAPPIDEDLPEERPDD
Briefly: Adenosine A1 Receptor Functional Assay (A1GAL2). As to conditions: CHO-K1 cells overexpressing human A1, cAMP inducible beta-galactosidase reporter, antagonist vs 4 nM r-PIA/1 uM Forskolin challenge. The experiment is classed as cell-based. Here is the method:
Adenosine A1 Receptor Functional Assay (A1GAL2)
To initiate the functional assay, cryopreserved CHO-K1 cells overexpressing the human adenosine A1 receptor and containing a cAMP inducible beta-galactosidase reporter gene were thawed, centrifuged, DMSO containing media removed, and then seeded with fresh culture media into clear 384-well tissue culture treated plates (BD #353961) at a concentration of 10K cells/well. Prior to assay, these plates were cultured for two days at 37° C., 5% CO2, 90% Rh. On the day of the functional assay, culture media was removed and replaced with 45 μL assay medium (Hams/F-12 Modified (Mediatech # 10-080CV) supplemented w/0.1% BSA). Test compounds were diluted and 11 point curves created at a 1000× concentration in 100% DMSO. Immediately after addition of assay media to the cell plates, 50 nL of the appropriate test compound antagonist or agonist control curves were added to cell plates using a Cartesian Hummingbird. Compound curves were allowed to incubate at room temperature on cell plates for approximately 15 minutes before addition of a 4 nM r-PIA (Sigma P4532)/1 uM Forskolin (Sigma F3917) agonist challenge (5 μL volume). A control curve of r-PIA in 1 uM Forskolin, a DMSO/Media control, and a single dose of Forskolin were also included on each plate. After additions, cell plates were allowed to incubate at 37° C., 5% CO2, 90% Rh for 5.5-6 hours. After incubation, media was removed, and cell plates were washed 1×50 μL with DPBS w/o Ca & Mg (Mediatech 21-031-CV). Into dry wells, 20 μL of 1× Reporter Lysis Buffer (Promega E3971 (diluted in dH2O from 5× stock)) was added to each well and plates frozen at −20° C. overnight. For β-galactosidase enzyme colorimetric assay, plates were thawed out at room temperature and 20 μL 2× assay buffer (Promega) was added to each well. Color was allowed to develop at 37° C., 5% CO2, 90% Rh for 1-1.5 hours or until reasonable signal appeared. The colorimetric reaction was stopped with the addition of 60 μL/well 1M sodium carbonate. Plates were counted at 405 nm on a SpectraMax Microplate Reader (Molecular Devices). Data was analyzed in Microsoft Excel and IC/EC50 curves were fit using a standardized macro.

T1 sequence (P29274 whole entry): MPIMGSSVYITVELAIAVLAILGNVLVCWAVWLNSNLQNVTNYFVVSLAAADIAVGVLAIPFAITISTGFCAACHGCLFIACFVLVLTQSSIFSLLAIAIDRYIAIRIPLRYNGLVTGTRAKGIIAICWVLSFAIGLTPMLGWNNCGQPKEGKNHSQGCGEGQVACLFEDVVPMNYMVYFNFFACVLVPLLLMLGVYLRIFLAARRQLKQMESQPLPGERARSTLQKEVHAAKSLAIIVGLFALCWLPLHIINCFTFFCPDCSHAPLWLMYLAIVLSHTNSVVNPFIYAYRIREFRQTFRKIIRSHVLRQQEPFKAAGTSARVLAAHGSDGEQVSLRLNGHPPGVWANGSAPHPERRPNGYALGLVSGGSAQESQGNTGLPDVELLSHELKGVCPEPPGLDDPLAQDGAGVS

For the molecule `Cc1cccc(-c2cccc3c2-c2nc(N)nc(-c4ccc(F)cc4)c2C3=O)c1` [Example 16, 2-Amino-4-(4-fluoro-phenyl)-9-m-tolyl-indeno[1,2-d]pyrimidin-5-one], in experiment [1], the IC50 came to 31 nM and the A1/A2A stood at 58.0645. The same molecule had an IC50 in experiment [2] of 1800 nM.
In the case of `N#Cc1ccc(-c2cccc3c2-c2nc(N)nc(-c4ccc(F)cc4)c2C3=O)cc1` [Example 10, 4-[2-Amino-4-(4-fluoro-phenyl)-5-oxo-5H-indeno[1,2-d]pyrimidin-9-yl]-benzonitrile], in experiment [1], the IC50 was determined as 2.6 nM and the A1/A2A was 103.846. This molecule yielded an IC50 in experiment [2] of 270 nM.
On to `CCC(CC)N1CCN(c2ccc(-c3cccc4c3-c3nc(N)nc(-c5ccc(F)cc5)c3C4=O)cc2)CC1` [Example 5, 2-Amino-9-{4-[4-(1-ethyl-propyl)-piperazin-1-yl]-phenyl}-4-(4-fluoro-phenyl)-indeno[1,2-d]pyrimidin-5-one], for which the IC50 in experiment [1] was found to be 23 nM; in experiment [2], 4200 nM. The A1/A2A in experiment [1] is 182.609.
Taken in the same sequence, the figures for `CCCN1CCN(c2ccc(-c3cccc4c3-c3nc(N)nc(-c5ccc(F)cc5)c3C4=O)cc2)CC1` [Example 15, 2-Amino-4-(4-fluoro-phenyl)-9-[4-(4-propyl-piperazin-1-yl)-phenyl]-indeno[1,2-d]pyrimidin-5-one] were 8.7 nM, 520 nM and 59.7701.
`Nc1nc(-c2ccc(F)cc2)c2c(n1)-c1c(cccc1-c1ccc(OCCN3CCOCC3)cc1)C2=O` [Example 13, 2-Amino-4-(4-fluoro-phenyl)-9-[4-(2-morpholin-4-yl-ethoxy)-phenyl]-indeno[1,2-d]pyrimidin-5-one]: in experiment [1], half-maximal inhibition (IC50) required 3.9 nM and the A1/A2A is 69.2308. In addition, in experiment [2], the half-inhibitory concentration (IC50) was found to be 270 nM.
As to `Nc1nc(-c2ccc(F)cc2)c2c(n1)-c1c(cccc1-c1cccc(F)c1)C2=O` [Example 3, 2-Amino-4-(4-fluoro-phenyl)-9-(3-fluoro-phenyl)-indeno[1,2-d]pyrimidin-5-one], the 50% inhibitory concentration (IC50) in experiment [1] turned out to be 26 nM; in experiment [2], 8900 nM. In experiment [1], the A1/A2A came out at 342.308.
In the case of `Nc1nc(-c2ccc(F)cc2)c2c(n1)-c1c(cccc1-c1ccc(N3CCN(Cc4ccccc4)CC3)cc1)C2=O` [Example 4, 2-Amino-9-[4-(4-benzyl-piperazin-1-yl)-phenyl]-4-(4-fluoro-phenyl)-indeno[1,2-d]pyrimidin-5-one], in experiment [1], 10 nM corresponded to half-maximal inhibition (IC50) and the A1/A2A worked out at 310. For the same molecule, the IC50 in experiment [2] turned out to be 3100 nM.
For the molecule `CCC(C)N1CCN(c2ccc(-c3cccc4c3-c3nc(N)nc(-c5ccc(F)cc5)c3C4=O)cc2)CC1` (stereo not drawn) [Example 6, 2-Amino-9-[4-(4-sec-butyl-piperazin-1-yl)-phenyl]-4-(4-fluoro-phenyl)-indeno[1,2-d]pyrimidin-5-one], in experiment [1], the IC50 was found to be 9.8 nM and the A1/A2A is listed as 142.857. In experiment [2], this molecule came in with an IC50 of 1400 nM.
For `CC(C)CN1CCN(c2ccc(-c3cccc4c3-c3nc(N)nc(-c5ccc(F)cc5)c3C4=O)cc2)CC1` [Example 2, 2-Amino-4-(4-fluoro-phenyl)-9-[4-(4-isobutyl-piperazin-1-yl)-phenyl]-indeno[1,2-d]pyrimidin-5-one], in experiment [1], it took 7.1 nM to reach half-maximal inhibition (IC50) and the A1/A2A came to 591.549. For the same molecule, the 50% inhibitory concentration (IC50) in experiment [2] worked out at 4200 nM.
For the molecule `CCN1CCN(c2ccc(-c3cccc4c3-c3nc(N)nc(-c5ccc(F)cc5)c3C4=O)cc2)CC1` [Example 12, 2-Amino-9-[4-(4-ethyl-piperazin-1-yl)-phenyl]-4-(4-fluoro-phenyl)-indeno[1,2-d]pyrimidin-5-one], in experiment [1], half-maximal inhibition (IC50) required 10 nM and the A1/A2A is reported as 76. Besides, in experiment [2], half-maximal inhibition (IC50) was put at 760 nM.
On to `COCCN1CCN(c2ccc(-c3cccc4c3-c3nc(N)nc(-c5ccc(F)cc5)c3C4=O)cc2)CC1` [Example 8, 2-Amino-4-(4-fluoro-phenyl)-9-{4-[4-(2-methoxy-ethyl)-piperazin-1-yl]-phenyl}-indeno[1,2-d]pyrimidin-5-one], for which, in experiment [1], the IC50 is 1.8 nM and the A1/A2A turned out to be 127.778. The same molecule returned a 50% inhibitory concentration (IC50) in experiment [2] of 230 nM.
On to `Nc1nc(-c2ccc(F)cc2)c2c(n1)-c1c(cccc1-c1ccc(N3CCN(CC4CC4)CC3)cc1)C2=O` [Example 7, 2-Amino-9-[4-(4-cyclopropylmethyl-piperazin-1-yl)-phenyl]-4-(4-fluoro-phenyl)-indeno[1,2-d]pyrimidin-5-one], for which, in experiment [1], the IC50 was 8.3 nM and the A1/A2A is recorded as 131.69. In experiment [2], the IC50 was determined as 1100 nM.
On to `Nc1nc(-c2ccccc2)c2c(n1)-c1c(cccc1-c1ccccc1)C2=O` [Example 14, 2-Amino-4,9-diphenyl-indeno[1,2-d]pyrimidin-5-one], for which, in experiment [1], the IC50 was found to be 8.6 nM and the A1/A2A amounted to 66.2791. In experiment [2], this molecule yielded an IC50 of 570 nM.
`Nc1nc(-c2ccc(F)cc2)c2c(n1)-c1c(cccc1-c1ccc(N3CCN(CCC(F)(F)F)CC3)cc1)C2=O` [Example 1, 2-Amino-4-(4-fluoro-phenyl)-9-{4-[4-(3,3,3-trifluoro-propyl)-piperazin-1-yl]-phenyl}-indeno[1,2-d]pyrimidin-5-one]: the half-maximal inhibitory concentration (IC50) in experiment [1] was 1.8 nM; in experiment [2], 5500 nM. The A1/A2A in experiment [1] stood at 3055.56.
Consider `CC(C)N1CCN(c2ccc(-c3cccc4c3-c3nc(N)nc(-c5ccc(F)cc5)c3C4=O)cc2)CC1` [Example 9, 2-Amino-4-(4-fluoro-phenyl)-9-[4-(4-isopropyl-piperazin-1-yl)-phenyl]-indeno[1,2-d]pyrimidin-5-one], for which the IC50 in experiment [1] was 16 nM; in experiment [2], 1800 nM. Besides, in experiment [1], the A1/A2A was 112.5.
Take `CC(C)CCN1CCN(c2ccc(-c3cccc4c3-c3nc(N)nc(-c5ccc(F)cc5)c3C4=O)cc2)CC1` [Example 11, 2-Amino-4-(4-fluoro-phenyl)-9-{4-[4-(3-methyl-butyl)-piperazin-1-yl]-phenyl}-indeno[1,2-d]pyrimidin-5-one]: the half-maximal inhibitory concentration (IC50) in experiment [1] is 11 nM; in experiment [2], 1100 nM. Further, the A1/A2A in experiment [1] is 100.
For `COc1ccc(-c2cccc3c2-c2nc(N)nc(-c4ccccc4)c2C3=O)cc1` [Example 17, 2-Amino-9-(4-methoxy-phenyl)-4-phenyl-indeno[1,2-d]pyrimidin-5-one], the IC50 in experiment [1] amounted to 6.3 nM; in experiment [2], 330 nM. In addition, the A1/A2A in experiment [1] came out at 52.381.

The IC50 is the midpoint of a concentration-inhibition curve. Read a low IC50 as inhibition by little substance.
